Data taken from PMC12529164, “Design, Synthesis, Structure–Activity Relationships, and Preliminary Anticancer Properties of Menthol-Modified Coumarin Esters and 3,4-Dihydrocoumarin Derivatives” (ACS Omega, 2025).
Values joined by “and” are separate entries in the source; they are usually repeats but may differ in a detail not shown here. Identical values can stand only once.

Key:
Type in all cases: cell-based, human
HaCaT = experiment: Annexin V-FITC/PI flow cytometry; conditions: compound at IC50, 72 h, mean
Protocol: (§1) The apoptotic and necrotic cells treated with derivatives 2b, 4a, 4b were detected using FITC Annexin V Apoptosis Detection Kit I (BD Biosciences Pharmingen). Briefly, cells (2 × 10^5 cells/well) were seeded in 6-well plates in supplemented medium. […] Then cells were harvested, washed, and labeled with Annexin V-FITC and propidium iodide (PI) according to the manufacturer’s protocol. The stained cells were analyzed by flow cytometry. The cells were identified as early apoptotic (Annexin V+/PI−) or late apoptotic/necrotic (Annexin V+/PI+).

SW620 = experiment: Annexin V-FITC/PI flow cytometry; conditions: SW620, compound at IC50, 72 h
Protocol: as §1

SW480 = experiment: Annexin V-FITC/PI flow cytometry; conditions: SW480, compound at IC50, 72 h, mean
Protocol: as §1

PC3 = experiment: Annexin V-FITC/PI flow cytometry; conditions: PC3, compound at IC50, 72 h, mean
Protocol: as §1

IL-6 in HaCaT cells = experiment: Interleukin-6 ELISA; conditions: compound at IC50, 72 h
Protocol: The concentration of Interleukin-6 (IL-6) was measured in cell culture supernatant using Interleukin IL-6 High Sensitivity ELISA kit (Diaclon SAS, Besancon Cedex, France). Cells (1 × 10^5 cells/well) were seeded in 12-well plates with medium for 24 h. […] After this incubation, the supernatants were collected and 100 μL of supernatant samples, control solutions and blank were added to precoated ELISA plate with the preceding plotting of the standard curve. Then 50 μL of diluted biotinylated antihuman interleukin-6 antibody was added and incubated at room temperature for 3 h. Afterward, the plate was washed three times and 100 μL streptavidin-HRP solution was added to each well. After 30 min incubation, the plate was washed again three times and 100 μL of tetramethylbenzidine (TMB) solution was added to each well. The plate was incubated for 15 min in the dark. The reaction was stopped by adding 100 μL of H2SO4 solution. The absorbance was estimated using a spectrophotometer at 450 nm (Microplate Spectrophotometer Thermo Scientific Multiskan GO).

## CC(C)[C@@H]1CC[C@@H](C)C[C@H]1OC(=O)C1C(=O)Oc2ccccc2C1P(=O)(c1ccccc1)c1ccccc1 (mixture of isomers) [Compound 4a, (1R,2S,5R)-2-Isopropyl-5-methylcyclohexyl-4-(diphenylphosphoryl)-2-oxochromane-3-carboxylate]
HaCaT
  Early apoptosis [%]: 8.90%
  Late apoptosis [%]: 3.40%
  Necrosis [%]: 0.08%
SW620; mean
  Early apoptosis [%]: 11.75%
  Late apoptosis [%]: 8.80%
  Necrosis [%]: 1.45%
SW620; sum
  both late apoptosis and necrosis: 10.25%
SW480
  Early apoptosis [%]: 1.95%
  Late apoptosis [%]: 48.95%
  Necrosis [%]: 1.80%
PC3
  Early apoptosis [%]: 48.3%
  Late apoptosis [%]: 44.75% and 44.8%
  Necrosis [%]: 0.65%
IL-6 in HaCaT cells; ELISA
  IL-6 concentration: 7.5 ± 1.13 pg/mL
IL-6 in HaCaT cells; vs control
  reduction of IL-6 concentration: 26.5%
